The results in this text go back to patent publication US7704995B2 (Exelixis, Inc., priority 2003, dated 2010).

One may read the IC50 as the midpoint of a concentration-inhibition curve.

The test deals with T1, Chk1 (Homo sapiens, UniProt O14757).
T1 construct: purchased Upstate Biotechnology
T1 sequence (O14757 1-476): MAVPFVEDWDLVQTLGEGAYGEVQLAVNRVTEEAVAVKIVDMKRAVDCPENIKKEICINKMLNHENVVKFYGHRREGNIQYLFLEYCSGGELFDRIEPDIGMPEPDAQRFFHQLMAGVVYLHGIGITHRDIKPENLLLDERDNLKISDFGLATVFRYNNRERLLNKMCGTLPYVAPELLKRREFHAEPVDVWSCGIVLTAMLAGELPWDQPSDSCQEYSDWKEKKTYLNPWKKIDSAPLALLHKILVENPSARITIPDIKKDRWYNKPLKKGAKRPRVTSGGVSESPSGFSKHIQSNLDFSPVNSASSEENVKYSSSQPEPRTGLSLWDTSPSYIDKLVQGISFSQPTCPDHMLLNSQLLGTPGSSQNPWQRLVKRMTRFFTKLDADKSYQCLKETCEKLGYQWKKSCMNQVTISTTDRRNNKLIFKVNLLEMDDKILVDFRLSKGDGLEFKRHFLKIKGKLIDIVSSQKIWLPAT
The test is described as follows: Chk1 kinase assay: incorporation of γ-33P ATP into immobilized myelin basic protein. Format: biochemical. The note with it: read-out: Chk1 IC50. The procedure:
Chk1 and Chk2 assays were performed by measuring incorporation of γ-^33P ATP into immobilized myelin basic protein (MBP). High binding white 384 well plates (Greiner) were coated with MBP (Sigma #M-1891) by incubation of 60 ul/well of 20 μg/ml MBP in Tris-buffered saline (TBS; 50 mM Tris pH 8.0, 138 mM NaCl, 2.7 mM KCl) for 24 hours at 4° C. Plates were washed 3× with 100 μl TBS. Kinase reactions were carried out in a total volume of 34 μl in kinase buffer (5 mM Hepes pH 7.6, 15 mM NaCl, 0.01% bovine gamma globulin (Sigma #I-5506), 10 mM MgCl2, 1 mM DTT, 0.02% TritonX-100). Compound dilutions were performed in DMSO and added to assay wells to a final DMSO concentration of 1%. Each data point was measured in duplicate, and at least two duplicate assays were performed for each individual compound determination. Chk1 and Chk2 enzymes (Upstate Biotechnology) were added to final concentrations of 10 nM (Chk1) or 20 nM (Chk2). A mixture of unlabeled ATP and γ-^33P ATP was added to start the reaction (2×10^6 cpm of γ-^33P ATP per well (3000 Ci/mmole) and either 10 μM or 30 μM unlabeled ATP (for Chk1 and Chk2 assays respectively). The reaction was carried out for 1 hour at room temperature with shaking. Plates were washed 7× with TBS, followed by the addition of 50 μl/well scintillation fluid (Wallac). Plates were read using a Wallac Trilux counter. This is only one format of such assays, various other formats are possible, as known to those skilled in the art.
The above assay procedure can be used to determine the IC50 for inhibition and/or the inhibition constant Ki. The IC50 is defined as the concentration of compound required to reduce the enzyme activity by 50% under the conditions of the assay. […] The Ki for a compound may be determined from the IC50 based on three assumptions. First, only one compound molecule binds to the enzyme and there is no cooperativity. […] Third, the enzymatic rate of the enzyme-inhibitor complex is zero. The rate (i.e., compound concentration) data are fitted to the equation: […]

For the compound `Nc1ncc(-c2ccccc2)nc1C(=O)N[C@H]1CCc2ccccc21` [Example 5, 3-amino-N-[(1S)-2,3-dihydro-1H-inden-1-yl]-6-phenylpyrazine-2-carboxamide], the 50% inhibitory concentration (IC50) is at least 10000 nM.

On to `Nc1ncc(-c2ccccc2)nc1C(=O)NC1CCCCC1` [Example 14, 3-amino-N-cyclohexyl-6-phenylpyrazine-2-carboxamide], for which the IC50 was at least 10000 nM.

For `COc1ccccc1-c1cnc(N)c(C(N)=O)n1` [Example 17, 3-amino-6-[2-(methyloxy)phenyl]pyrazine-2-carboxamide], the IC50 is at least 10000 nM.

On to `NC(=O)c1nc(-c2ccc(F)cc2F)cnc1N` [Example 18, 3-amino-6-(2,4-difluorophenyl)pyrazine-2-carboxamide], for which the IC50 is at least 10000 nM.

As for `NC(=O)c1nc(-c2cccc(F)c2)cnc1N` [Example 19, 3-amino-6-(3-fluorophenyl)pyrazine-2-carboxamide], the IC50 is at least 10000 nM.

Take `NC(=O)c1nc(-c2ccc3ccccc3c2)cnc1N` [Example 27, 3-amino-6-naphthalen-2-ylpyrazine-2-carboxamide]: the IC50 is at least 10000 nM.

`CNC(=O)c1cc(-c2cccc(CO)c2)cnc1N` [Example 35]: the IC50 lay in the range of 50 to 1000 nM.

As for `NC(=O)c1nc(-c2ccccc2)cnc1NCc1ccccc1` [Example 39, 6-phenyl-3-[(phenylmethyl)amino]pyrazine-2-carboxamide], the IC50 is at least 10000 nM.

Turning to `CCCNc1ncc(-c2ccccc2)nc1C(N)=O` [Example 40, 6-phenyl-3-(propylamino)pyrazine-2-carboxamide], the 50% inhibitory concentration (IC50) is at least 10000 nM.

Take `CNC(=O)c1nc(-c2cccc(N)c2)cnc1N` [Example 51, 3-amino-6-(3-aminophenyl)-N-methylpyrazine-2-carboxamide]: the half-inhibitory concentration (IC50) is 50 to 1000 nM.

Regarding `CNC(=O)c1nc(-c2cccc(CO)c2)cnc1N` [Example 57, 3-amino-6-[3-(hydroxymethyl)phenyl]-N-methylpyrazine-2-carboxamide], the IC50 was 50 to 1000 nM.

For the compound `CNC(=O)c1nc(-c2ccc(CO)cc2)cnc1N` [Example 58, 3-amino-6-[4-(hydroxymethyl)phenyl]-N-methylpyrazine-2-carboxamide], the IC50 is 1000 to 10000 nM.

In the case of `C/N=C(\C)c1cccc(-c2cnc(N)c(C(=O)NC)n2)c1` [Example 59, 3-amino-N-methyl-6-{3-[(1E)-N-methylethanimidoyl]phenyl}pyrazine-2-carboxamide], the IC50 fell in the range of 1000 to 10000 nM.

As for `CNC(=O)c1nc(-c2cccc(OC)c2)cnc1N` [Example 60, 3-amino-N-methyl-6-[3-(methyloxy)phenyl]pyrazine-2-carboxamide], the IC50 is 1000 to 10000 nM.

With `CNC(=O)c1nc(-c2ccc(NC(C)=O)cc2)cnc1N` [Example 63, 6-[4-(acetylamino)phenyl]-3-amino-N-methylpyrazine-2-carboxamide], the IC50 was 1000 to 10000 nM.

For the compound `CNC(=O)c1nc(-c2noc(C3CCCC3)n2)cnc1N` [Example 67, 3-amino-6-(5-cyclopentyl-1,2,4-oxadiazol-3-yl)-N-methylpyrazine-2-carboxamide], the IC50 was at least 10000 nM.

With `CNC(=O)c1nc(-c2noc(-c3ccccc3)n2)cnc1N` [Example 69, 3-amino-N-methyl-6-(5-phenyl-1,2,4-oxadiazol-3-yl)pyrazine-2-carboxamide], the IC50 is at least 10000 nM.

For the compound `CNC(=O)c1nc(-c2noc(Cc3ccccc3)n2)cnc1N` [Example 70, 3-amino-N-methyl-6-[5-(phenylmethyl)-1,2,4-oxadiazol-3-yl]pyrazine-2-carboxamide], the IC50 was at least 10000 nM.

As to `CNC(=O)c1nc(-c2noc(CCc3ccccc3)n2)cnc1N` [Example 72, 3-amino-N-methyl-6-[5-(2-phenylethyl)-1,2,4-oxadiazol-3-yl]pyrazine-2-carboxamide], the IC50 is at least 10000 nM.

For `CNC(=O)c1nc(-c2noc(C(C)(C)C)n2)cnc1N` [Example 74, 3-amino-6-[5-(1,1-dimethylethyl)-1,2,4-oxadiazol-3-yl]-N-methylpyrazine-2-carboxamide], the IC50 was at least 10000 nM.

For the compound `CNC(=O)c1nc(-c2noc(-c3ccco3)n2)cnc1N` [Example 75, 3-amino-6-(5-furan-2-yl-1,2,4-oxadiazol-3-yl)-N-methylpyrazine-2-carboxamide], the half-maximal inhibitory concentration (IC50) was at least 10000 nM.

For `CNC(=O)c1nc(-c2ccc(N(C)C)cc2)cnc1N` [Example 76, 3-amino-6-[4-(dimethylamino)phenyl]-N-methylpyrazine-2-carboxamide], the IC50 lay in the range of 1000 to 10000 nM.

Regarding `CNC(=O)c1nc(-c2ccc(NS(C)(=O)=O)cc2)cnc1N` [Example 77, 3-amino-N-methyl-6-{4-[(methylsulfonyl)amino]phenyl}pyrazine-2-carboxamide], the IC50 lay in the range of 1000 to 10000 nM.

For `CNC(=O)c1nc(-c2cc(C)cc(C)c2)cnc1N` [Example 78, 3-amino-6-(3,5-dimethylphenyl)-N-methylpyrazine-2-carboxamide], the IC50 lay within 1000 to 10000 nM.

Consider `CNC(=O)c1nc(-c2ccc(C(C)=O)cc2)cnc1N` [Example 79, 6-(4-acetylphenyl)-3-amino-N-methylpyrazine-2-carboxamide], for which the IC50 lay in the range of 1000 to 10000 nM.

Take `CNC(=O)c1nc(-c2ccc(OC)c(OC)c2)cnc1N` [Example 80, 3-amino-6-[3,4-bis(methyloxy)phenyl]-N-methylpyrazine-2-carboxamide]: the IC50 fell in the range of 1000 to 10000 nM.

Regarding `CNC(=O)c1nc(-c2cccc(NC(=O)c3ccccc3)c2)cnc1N` [Example 81, 3-amino-N-methyl-6-{3-[(phenylcarbonyl)amino]phenyl}pyrazine-2-carboxamide], the IC50 lay in the range of 50 to 1000 nM.

For `CNC(=O)c1nc(-c2cccc(NS(C)(=O)=O)c2)cnc1N` [Example 82, 3-amino-N-methyl-6-{3-[(methylsulfonyl)amino]phenyl}pyrazine-2-carboxamide], the IC50 was in the range of 1000 to 10000 nM.

Turning to `CNC(=O)c1nc(-c2cccc(-c3nnn[nH]3)c2)cnc1N` [Example 83, 3-amino-N-methyl-6-[3-(1H-tetrazol-5-yl)phenyl]pyrazine-2-carboxamide], the IC50 fell in the range of 1000 to 10000 nM.

`CNC(=O)c1nc(-c2cccc(C(=O)NCc3ccccc3)c2)cnc1N` [Example 84, 3-amino-N-methyl-6-(3-{[(phenylmethyl)amino]carbonyl}phenyl)pyrazine-2-carboxamide]: the IC50 fell in the range of 50 to 1000 nM.

`CNC(=O)c1nc(-c2cccc(C(N)=O)c2)cnc1N` [Example 85, 3-amino-6-[3-(aminocarbonyl)phenyl]-N-methylpyrazine-2-carboxamide]: the concentration for half-maximal inhibition (IC50) was 1000 to 10000 nM.

With `CNC(=O)c1nc(-c2cccc(C(=O)N(C)C)c2)cnc1N` [Example 86, 3-amino-6-{3-[(dimethylamino)carbonyl]phenyl}-N-methylpyrazine-2-carboxamide], the IC50 was 1000 to 10000 nM.

On to `CNC(=O)c1nc(-c2ccc(S(C)(=O)=O)cc2)cnc1N` [Example 87, 3-amino-N-methyl-6-[4-(methylsulfonyl)phenyl]pyrazine-2-carboxamide], for which the IC50 fell in the range of 1000 to 10000 nM.

Turning to `CCNC(=O)c1nc(-c2cccc(N)c2)cnc1N` [Example 88, 3-amino-6-(3-aminophenyl)-N-ethylpyrazine-2-carboxamide], the IC50 was in the range of 1000 to 10000 nM.

For `CNC(=O)c1nc(-c2cccc(NC(=O)Nc3ccc(F)cc3)c2)cnc1N` [Example 89, 3-amino-6-[3-({[(4-fluorophenyl)amino]carbonyl}amino)phenyl]-N-methylpyrazine-2-carboxamide], the IC50 lay in the range of 50 to 1000 nM.

Take `CNC(=O)c1nc(-c2cccc(NC(=O)Nc3ccc(OC)cc3)c2)cnc1N` [Example 90, 3-amino-N-methyl-6-{3-[({[4-(methyloxy)phenyl]amino}carbonyl)amino]phenyl}pyrazine-2-carboxamide]: the IC50 fell in the range of 50 to 1000 nM.

Consider `CNC(=O)c1nc(-c2cccc(NC(=O)Nc3cccc(-c4cnc(N)c(C(=O)NC)n4)c3)c2)cnc1N` [Example 91, 6,6′-[(oxomethanediyl)bis(iminobenzene-3,1-diyl)]bis(3-amino-N-methylpyrazine-2-carboxamide)], for which the half-maximal inhibitory concentration (IC50) is under 50 nM.
